Measurements: patent publication US10858347B2, “Multicyclic compounds and uses thereof” (Karyopharm Therapeutics Inc., priority 2015, dated 2020)

What was measured:
[1] = tested on: Z138 cells; assay: MTT cell proliferation assay, Z138 cells; assay type: cell-based, human; conditions: Homo sapiens, Z-138; Z138 cells (mature B-cell acute lymphoblastic leukemia cell line); approximately 64-72 hours incubation
Method: (§1) The MTT cell proliferation assay was used to study the cytotoxic properties of the compounds. The assay was performed according to the method described by Roche Molecular Biochemicals, with minor modifications. The assay is based on the cleavage of the tetrazolium salt, MTT, in the presence of an electron-coupling reagent. The water-insoluble formazan salt produced must be solubilized in an additional step. Cells grown in a 96-well tissue culture plate were incubated with the MTT solution for approximately 4 hours. After this incubation period, a water-insoluble formazan dye formed. After solubilization, the formazan dye was quantitated using a scanning multi-well spectrophotometer (ELISA reader). […] The cells were seeded at 5,000-10,000 cells in each well of 96-well plate in 100 μL of fresh culture medium and were allowed to attach overnight. The stock solutions of the compounds were diluted in 100 μL cell culture medium to obtain eight concentrations of each test compound, ranging from 1 nM to 30 μM. […] All optical densities were measured at 490 nm using a Vmax Kinetic Microplate Reader (Molecular Devices). In most cases, the assay was performed in duplicate and the results were presented as a mean percent inhibition to the negative control±SE. The following formula was used to calculate the percent of inhibition: Inhibition (%)=(1−(ODo/OD))×100.
(§2) The compounds were tested against MS751, Z138 and 3T3 cells. The MS751 cell line is derived from a metastasis to lymph node of human cervix from a patient diagnosed with squameous cell carcinoma of the cervix. The Z138 cell line is a mature B-cell acute lymphoblastic leukemia cell line derived from a patient with chronic lumphocytic leukemia. 3T3 cells are standard fibroblast cells; they were originally isolated from Swiss mouse embryo tissue.

[2] = tested on: MS751 cells; assay: MTT cell proliferation assay, MS751 cells; assay type: cell-based; conditions: MS751 cells (human cervix squamous cell carcinoma, lymph node metastasis); approximately 64-72 hours incubation
Method: as §1, §2

[3] = tested on: 3T3 cells; assay: MTT cell proliferation assay, 3T3 cells; assay type: cell-based; conditions: NIH3T3; 3T3 cells (standard fibroblast cells, Swiss mouse embryo); approximately 64-72 hours incubation
Method: as §1, §2

| SMILES | IC50 [1] | IC50 [2] | IC50 [3] |
| --- | --- | --- | --- |
| O=C(NCCc1cc2cc(-c3ccc(C(=O)N4CCC(F)(F)CC4)cc3)cc(-c3ccc(F)cc3)c2o1)N1Cc2ccncc2C1 [Compound 107, N-(2-(5-(4-(4,4-difluoropiperidine-1-carbonyl)phenyl)-7-(4-fluorophenyl)benzofuran-2-yl)ethyl)-1H-pyrrolo[3,4-c]pyridine-2(3H)-carboxamide] | < 0.1 µM | < 0.1 µM | 0.1 to 5 µM |
| O=C(NCc1cc2cc(-c3ccc(C(=O)N4CCC(F)(F)CC4)cc3)cc(-c3ccc(F)cc3F)c2o1)N1Cc2ccncc2C1 [Compound 108, N-((7-(2,4-difluorophenyl)-5-(4-(4,4-difluoropiperidine-1-carbonyl)phenyl)benzofuran-2-yl)methyl)-1H-pyrrolo[3,4-c]pyridine-2(3H)-carboxamide] | < 0.1 µM | < 0.1 µM | > 10 µM |
| N#C/N=C(\NCc1cc2cc(-c3ccc(C(=O)N4CCC(F)(F)CC4)cc3)cc(-c3ccc(F)cc3)c2o1)Nc1ccc(N)nc1 [Compound 118, (E)-1-(6-aminopyridin-3-yl)-2-cyano-3-((5-(4-(4,4-difluoropiperidine-1-carbonyl)phenyl)-7-(4-fluorophenyl)benzofuran-2-yl)methyl)guanidine] | > 10 µM | > 10 µM | > 10 µM |
| N#C/N=C(/NCc1ccc(N)nc1)NCc1cc2cc(-c3ccc(C(=O)N4CCC(F)(F)CC4)cc3)cc(-c3ccc(F)cc3)c2o1 [Compound 119, (Z)-1-((6-aminopyridin-3-yl)methyl)-2-cyano-3-((5-(4-(4,4-difluoropiperidine-1-carbonyl)phenyl)-7-(4-fluorophenyl)benzofuran-2-yl)methyl)guanidine] | 0.1 to 5 µM | 0.1 to 5 µM | > 10 µM |
| O=C(NCCOc1ccc(-c2ccc(C(=O)N3CCC(F)(F)CC3)cc2)cc1-c1ccc(F)cc1)N1Cc2ccncc2C1 [Compound 121, N-(2-((4-(4,4-difluoropiperidine-1-carbonyl)-4″-fluoro-[1,1′:3′,1″-terphenyl]-4′-yl)oxy)ethyl)-1,3-dihydro-2H-pyrrolo[3,4-c]pyridine-2-carboxamide] | < 0.1 µM | < 0.1 µM | > 10 µM |
